Test results as given in ChEMBL document CHEMBL1201862, “PubChem BioAssay data set” (2004).
Calls of active or inactive are those of the source.

Assays:
[1] = molecular target: T1, Corticotropin-releasing factor receptor 2/Corticotropin-releasing factor-binding protein (Homo sapiens, UniProt P24387+Q13324); test: Dose Response confirmation of uHTS hits for small molecule antagonists of the CRF-binding protein and CRF-R2 receptor complex.; assay type: functional; settings: read-out: IC50_Mean
T1 sequence (Q13324 whole entry): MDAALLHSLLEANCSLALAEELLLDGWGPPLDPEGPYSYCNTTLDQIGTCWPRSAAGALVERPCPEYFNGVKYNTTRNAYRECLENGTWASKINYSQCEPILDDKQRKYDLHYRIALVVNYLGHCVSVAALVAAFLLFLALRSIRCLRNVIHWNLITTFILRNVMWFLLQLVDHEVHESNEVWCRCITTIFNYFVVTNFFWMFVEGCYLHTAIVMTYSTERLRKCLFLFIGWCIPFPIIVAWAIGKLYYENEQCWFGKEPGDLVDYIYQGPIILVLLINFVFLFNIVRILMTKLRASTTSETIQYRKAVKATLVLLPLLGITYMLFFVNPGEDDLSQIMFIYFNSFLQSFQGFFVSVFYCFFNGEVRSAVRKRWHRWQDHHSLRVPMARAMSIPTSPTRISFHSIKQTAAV
T1 sequence (P24387 whole entry): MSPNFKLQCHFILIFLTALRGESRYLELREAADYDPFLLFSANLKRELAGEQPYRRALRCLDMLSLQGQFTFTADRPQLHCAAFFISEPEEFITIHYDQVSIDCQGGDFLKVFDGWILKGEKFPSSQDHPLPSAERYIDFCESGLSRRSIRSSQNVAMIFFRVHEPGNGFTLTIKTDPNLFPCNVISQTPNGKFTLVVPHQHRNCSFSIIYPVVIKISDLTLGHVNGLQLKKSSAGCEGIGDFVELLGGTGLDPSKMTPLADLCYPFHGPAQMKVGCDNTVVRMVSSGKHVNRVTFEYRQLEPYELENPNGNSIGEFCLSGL

[2] = molecular target: T1, Corticotropin-releasing factor receptor 2/Corticotropin-releasing factor-binding protein; test: activators of CRF receptor 2 with binding protein – uHTS hits, confirmation (AID 602473); assay type: functional; settings: read-out: EC50_Mean
[3] = CRF-BP/CRF-R2 complex antagonists, dose response, cell-based, uHTS hits, 384-well (AID 651639); assay type: functional, Homo sapiens; settings: read-out: IC50_Mean
[4] = molecular target: 26S proteasome non-ATPase regulatory subunit 14 (Homo sapiens, UniProt O00487); test: inhibition of proteasome subunit RPN11 – biochemical, fluorescence polarization, uHTS hits, confirmation (AID 602368); assay type: functional
26S proteasome non-ATPase regulatory subunit 14, sequence (O00487 whole entry): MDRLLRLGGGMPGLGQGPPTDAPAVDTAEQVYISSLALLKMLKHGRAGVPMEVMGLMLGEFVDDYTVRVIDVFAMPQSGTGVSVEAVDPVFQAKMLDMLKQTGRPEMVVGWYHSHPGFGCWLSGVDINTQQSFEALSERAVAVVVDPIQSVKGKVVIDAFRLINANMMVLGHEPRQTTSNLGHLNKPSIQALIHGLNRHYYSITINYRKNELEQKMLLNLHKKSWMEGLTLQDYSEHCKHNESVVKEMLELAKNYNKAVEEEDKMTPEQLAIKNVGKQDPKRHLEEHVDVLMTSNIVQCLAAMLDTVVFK

[5] = molecular target: 72 kDa type IV collagenase (Homo sapiens, UniProt P08253); test: Dose Response validation of uHTS RPN11 inhibitor hits using a MMP-2 Fluorescence assay.; assay type: functional
72 kDa type IV collagenase, sequence (P08253 whole entry): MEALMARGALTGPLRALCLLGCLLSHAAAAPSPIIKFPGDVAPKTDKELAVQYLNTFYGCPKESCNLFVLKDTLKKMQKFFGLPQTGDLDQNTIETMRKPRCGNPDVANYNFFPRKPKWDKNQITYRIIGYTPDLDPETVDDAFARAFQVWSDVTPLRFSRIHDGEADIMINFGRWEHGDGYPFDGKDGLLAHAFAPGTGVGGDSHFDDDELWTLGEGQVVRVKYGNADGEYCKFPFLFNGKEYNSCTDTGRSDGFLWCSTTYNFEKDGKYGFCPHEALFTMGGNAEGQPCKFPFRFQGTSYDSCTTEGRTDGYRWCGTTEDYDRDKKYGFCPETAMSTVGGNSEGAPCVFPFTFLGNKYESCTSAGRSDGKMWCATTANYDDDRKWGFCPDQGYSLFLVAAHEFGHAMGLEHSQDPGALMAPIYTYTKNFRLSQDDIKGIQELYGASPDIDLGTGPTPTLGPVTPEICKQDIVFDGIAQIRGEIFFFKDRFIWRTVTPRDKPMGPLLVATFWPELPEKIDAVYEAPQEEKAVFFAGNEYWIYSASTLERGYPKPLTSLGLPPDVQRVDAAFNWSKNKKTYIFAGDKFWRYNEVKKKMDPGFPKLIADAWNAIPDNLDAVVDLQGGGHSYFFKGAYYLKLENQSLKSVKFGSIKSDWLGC

[6] = molecular target: Prothrombin (Bos taurus, UniProt P00735); test: thrombin inhibition, dose response, biochemical, fluorescence polarization, uHTS hits (AID 602369); assay type: functional
[7] = molecular target: T2, Long-chain-fatty-acid--AMP ligase FadD28 (Mycobacterium tuberculosis, UniProt P9WQ59); test: Fluorescence polarization aasay to screen for inhibitors that compete for the binding of FadD28 to a bisubstrate Measured in Biochemical System Using Plate Reader - 2147-01_Inhibitor_Dose_CherryPick_Activity.; assay type: functional, Mycobacterium tuberculosis H37Rv
T2 sequence (P9WQ59 whole entry): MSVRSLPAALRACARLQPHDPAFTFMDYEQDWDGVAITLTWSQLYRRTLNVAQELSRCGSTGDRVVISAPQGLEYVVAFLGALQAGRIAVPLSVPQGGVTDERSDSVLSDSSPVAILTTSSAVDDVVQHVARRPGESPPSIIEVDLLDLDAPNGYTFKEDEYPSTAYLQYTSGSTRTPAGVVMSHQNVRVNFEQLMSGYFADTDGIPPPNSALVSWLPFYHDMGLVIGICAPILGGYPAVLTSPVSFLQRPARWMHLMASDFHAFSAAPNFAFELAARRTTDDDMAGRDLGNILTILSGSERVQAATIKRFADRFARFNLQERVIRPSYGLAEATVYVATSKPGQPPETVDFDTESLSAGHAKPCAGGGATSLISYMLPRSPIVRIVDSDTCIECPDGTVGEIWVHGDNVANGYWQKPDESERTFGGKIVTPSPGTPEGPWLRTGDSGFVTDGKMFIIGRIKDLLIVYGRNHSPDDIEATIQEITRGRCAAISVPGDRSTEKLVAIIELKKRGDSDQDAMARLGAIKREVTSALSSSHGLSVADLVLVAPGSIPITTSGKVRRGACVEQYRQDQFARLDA

[8] = inhibitors of intracellular T. cruzi replication, confirmation, NIH3T3 host cells, beta-gal luminescence (AID 2044); assay type: functional, cell-based;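 further: intracellular parasites grown in NIH/3T3 mouse fibroblasts as host cells; luminescent beta-galactosidase reporter signal from transgenic T. cruzi replicating inside host cells; inhibitors lower the luminescence signal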
[9] = cytotoxicity toward NIH3T3 fibroblasts, dose response, counter-screen, cell-based, ATP luminescence, mouse fibroblasts (AID 2010); assay type: functional;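 further: cells exposed to compound for about 90 hours before reading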
[10] = molecular target: T3, Apoptotic protease-activating factor 1 (Homo sapiens, UniProt O14727); assay type: functional
T3 sequence (O14727 whole entry): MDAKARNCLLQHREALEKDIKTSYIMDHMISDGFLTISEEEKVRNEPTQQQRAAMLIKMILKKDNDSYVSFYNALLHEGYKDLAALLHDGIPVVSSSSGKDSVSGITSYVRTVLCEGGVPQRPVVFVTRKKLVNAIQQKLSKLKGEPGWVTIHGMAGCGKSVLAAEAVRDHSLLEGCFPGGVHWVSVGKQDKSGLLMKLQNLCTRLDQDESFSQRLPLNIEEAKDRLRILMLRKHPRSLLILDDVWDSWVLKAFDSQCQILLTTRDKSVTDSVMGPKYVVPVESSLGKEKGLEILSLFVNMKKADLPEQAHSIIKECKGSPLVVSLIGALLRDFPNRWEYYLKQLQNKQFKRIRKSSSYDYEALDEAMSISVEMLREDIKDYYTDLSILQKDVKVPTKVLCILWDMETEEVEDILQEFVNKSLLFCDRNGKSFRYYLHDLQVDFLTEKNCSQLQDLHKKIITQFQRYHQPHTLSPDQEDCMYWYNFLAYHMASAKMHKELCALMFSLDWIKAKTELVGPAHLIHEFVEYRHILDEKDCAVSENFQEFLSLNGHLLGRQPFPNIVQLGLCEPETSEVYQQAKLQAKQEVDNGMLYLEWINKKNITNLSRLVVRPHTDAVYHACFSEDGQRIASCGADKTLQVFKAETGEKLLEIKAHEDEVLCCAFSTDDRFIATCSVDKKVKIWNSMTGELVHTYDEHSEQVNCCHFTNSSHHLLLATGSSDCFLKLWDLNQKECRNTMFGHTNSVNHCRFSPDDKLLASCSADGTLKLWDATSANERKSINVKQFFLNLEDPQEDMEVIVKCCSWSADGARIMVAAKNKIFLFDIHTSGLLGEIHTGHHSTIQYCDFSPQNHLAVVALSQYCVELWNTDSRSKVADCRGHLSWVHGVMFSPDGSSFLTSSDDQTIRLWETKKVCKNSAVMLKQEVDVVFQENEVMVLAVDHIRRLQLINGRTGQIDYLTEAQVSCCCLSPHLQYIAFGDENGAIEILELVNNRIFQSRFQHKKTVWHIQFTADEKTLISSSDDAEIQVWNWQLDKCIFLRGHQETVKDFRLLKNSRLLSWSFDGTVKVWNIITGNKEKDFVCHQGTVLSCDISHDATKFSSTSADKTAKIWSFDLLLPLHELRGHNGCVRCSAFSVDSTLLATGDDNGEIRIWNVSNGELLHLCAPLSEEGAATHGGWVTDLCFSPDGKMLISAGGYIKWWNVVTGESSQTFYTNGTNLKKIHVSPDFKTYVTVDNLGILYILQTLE

[11] = molecular target: T4, Estrogen receptor (Homo sapiens, UniProt P03372);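 further: potency for inhibiting coactivator peptide recruitment to the receptor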
T4 sequence (P03372 whole entry): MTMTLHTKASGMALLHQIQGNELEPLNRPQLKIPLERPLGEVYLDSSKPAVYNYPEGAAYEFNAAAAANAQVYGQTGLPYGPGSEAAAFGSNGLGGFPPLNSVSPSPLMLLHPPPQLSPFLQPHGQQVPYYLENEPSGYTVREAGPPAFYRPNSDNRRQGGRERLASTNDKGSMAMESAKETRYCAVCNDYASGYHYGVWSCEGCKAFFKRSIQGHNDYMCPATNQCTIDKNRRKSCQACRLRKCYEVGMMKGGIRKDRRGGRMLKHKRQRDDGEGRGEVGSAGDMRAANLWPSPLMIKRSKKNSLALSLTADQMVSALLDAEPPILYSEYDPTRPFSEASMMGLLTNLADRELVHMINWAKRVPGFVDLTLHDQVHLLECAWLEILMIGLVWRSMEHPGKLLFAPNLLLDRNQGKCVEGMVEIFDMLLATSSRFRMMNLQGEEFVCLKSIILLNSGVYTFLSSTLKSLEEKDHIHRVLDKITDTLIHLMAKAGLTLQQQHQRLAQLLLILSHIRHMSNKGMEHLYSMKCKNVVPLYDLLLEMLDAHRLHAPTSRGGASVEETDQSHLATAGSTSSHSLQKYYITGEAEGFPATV

[12] = molecular target: Large T antigen (Simian virus 40, UniProt P03070); assay type: functional, Betapolyomavirus macacae;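 further: Confirmatory-stage PubChem screen for compounds that inhibit SV40 T antigen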
Large T antigen, sequence (P03070 whole entry): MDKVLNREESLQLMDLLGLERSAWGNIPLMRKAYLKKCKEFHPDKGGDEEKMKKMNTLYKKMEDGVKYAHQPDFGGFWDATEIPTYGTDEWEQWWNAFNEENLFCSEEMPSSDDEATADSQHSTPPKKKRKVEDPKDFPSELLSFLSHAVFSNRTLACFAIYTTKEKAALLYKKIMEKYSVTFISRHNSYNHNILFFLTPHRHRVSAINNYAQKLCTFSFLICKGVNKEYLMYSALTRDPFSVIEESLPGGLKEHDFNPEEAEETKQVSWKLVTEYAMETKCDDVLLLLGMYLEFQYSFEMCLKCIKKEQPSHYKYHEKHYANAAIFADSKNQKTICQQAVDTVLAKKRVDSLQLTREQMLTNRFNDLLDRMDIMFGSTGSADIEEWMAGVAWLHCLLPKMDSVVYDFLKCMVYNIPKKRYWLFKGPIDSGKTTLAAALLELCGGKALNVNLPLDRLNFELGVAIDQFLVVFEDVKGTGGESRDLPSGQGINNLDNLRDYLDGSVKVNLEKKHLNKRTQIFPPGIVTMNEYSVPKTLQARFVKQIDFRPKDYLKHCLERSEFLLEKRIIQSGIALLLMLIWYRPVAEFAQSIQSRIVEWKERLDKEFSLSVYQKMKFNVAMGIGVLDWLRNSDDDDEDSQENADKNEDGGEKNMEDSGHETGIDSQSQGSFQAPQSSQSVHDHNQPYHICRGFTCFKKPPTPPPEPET

[13] = molecular target: Heat shock protein HSP 90-alpha (Homo sapiens, UniProt P07900); assay type: functional, organism-based
[14] = HEp-2 cell cytotoxicity, dose response, cytotoxicity control for RSV inhibitor project, HTS (AID 2410); assay type: functional; settings: human respiratory syncytial virus
[15] = microbe, parasite or virus in culture; assay type: functional; settings: Mycobacterium tuberculosis
[16] = molecular target: T5, RNA-binding protein pos-1 (Caenorhabditis elegans, UniProt G5EF15); test: inhibitors of POS-1/mex-3 RNA binding, dose response, biochemical, fluorescence polarization (AID 1964);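 further: purified POS-1 fused to maltose binding protein made in E. coli; potency of compounds blocking POS-1 binding to fluorescent RNA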
T5 sequence (G5EF15 whole entry): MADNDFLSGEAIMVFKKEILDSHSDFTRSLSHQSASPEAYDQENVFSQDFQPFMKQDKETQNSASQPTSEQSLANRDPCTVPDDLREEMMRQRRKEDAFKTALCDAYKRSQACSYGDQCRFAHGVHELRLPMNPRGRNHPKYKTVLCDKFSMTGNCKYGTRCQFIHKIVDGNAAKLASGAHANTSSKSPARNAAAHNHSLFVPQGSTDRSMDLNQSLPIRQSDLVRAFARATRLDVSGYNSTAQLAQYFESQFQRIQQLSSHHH

[17] = molecular target: T6, Zinc finger protein mex-5 (Caenorhabditis elegans, UniProt Q9XUB2); test: MEX-5/TCR-2 RNA interaction inhibitors, dose response, biochemical, C. elegans, fluorescence polarization (AID 1960)
T6 sequence (Q9XUB2 whole entry): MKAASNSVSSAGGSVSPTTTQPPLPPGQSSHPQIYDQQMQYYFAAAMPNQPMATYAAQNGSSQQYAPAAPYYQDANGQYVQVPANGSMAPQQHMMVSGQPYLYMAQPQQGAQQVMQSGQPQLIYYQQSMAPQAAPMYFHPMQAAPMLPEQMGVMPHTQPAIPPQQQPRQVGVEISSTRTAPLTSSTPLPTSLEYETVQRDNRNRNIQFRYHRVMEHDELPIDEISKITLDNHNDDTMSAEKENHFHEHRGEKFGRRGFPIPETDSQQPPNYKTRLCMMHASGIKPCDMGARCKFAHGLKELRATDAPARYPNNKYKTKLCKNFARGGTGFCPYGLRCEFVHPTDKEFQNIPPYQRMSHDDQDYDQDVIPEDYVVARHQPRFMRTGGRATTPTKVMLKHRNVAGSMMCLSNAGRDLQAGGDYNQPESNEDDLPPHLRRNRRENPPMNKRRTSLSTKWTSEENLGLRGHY

[18] = molecular target: T7, Endoribonuclease toxin MazF (Escherichia coli K-12, UniProt P0AE70); test: MazF toxin RNase activators, dose response, biochemical, fluorescence, single-stranded RNA substrate, uHTS hits (AID 588481); assay type: functional
T7 sequence (P0AE70 whole entry): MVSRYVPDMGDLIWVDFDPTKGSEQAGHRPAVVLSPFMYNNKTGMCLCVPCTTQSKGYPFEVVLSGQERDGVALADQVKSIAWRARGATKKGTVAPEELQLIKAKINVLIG

[19] = molecular target: T7, Endoribonuclease toxin MazF; test: fluorescent RNA oligo signal without MazF, dose response, counter-screen for MazEF activator project, biochemical, fluorescence, single-stranded RNase substrate (AID 588502); assay type: functional

CCOC(=O)c1c(NC(=O)c2c(Br)cnn2C)c(C#N)nn1-c1ccccc1
IC50 [1]: 43.9 µM (active) | EC50 [2]: > 53 µM (inactive) | IC50 [3]: 18.4 µM (active)

NC(=O)CC(NC(=O)Cc1ccc(Cl)cc1)c1ccc(NC2CCCC2)c([N+](=O)[O-])c1 (stereo not given)
IC50 [4]: 29.9 µM (active) | IC50 [5]: > 100 µM (inactive) | IC50 [6]: 38.8 µM (active)

COc1ccc(C(=O)NCc2ccc(C)cc2)cc1S(=O)(=O)N1CCCC1
AC50 [7]: 19 µM (active)

CC(=O)Nc1ccc(/N=C(/C2=C(O)c3ccccc3C2=O)c2ccccc2)cc1
AC50 [7]: > 100 µM (inactive)

COc1ccc2c(c1)Cc1sc(NC(=O)c3cccs3)nc1-2
EC50 [8]: 2.01 µM (active) | EC50 [9]: > 60 µM (not active) | IC50 [10]: 28.7 µM (active)

Brc1ccccc1-c1nnc(CSc2nnnn2-c2ccccc2)o1
IC50 [11]: > 50 µM (not active) | IC50 [1]: 8.93 µM (active) | EC50 [2]: > 53 µM (inactive) | IC50 [3]: 1.36 µM (active)

N#C/C(=C\c1ccc(O)c(O)c1)C(=O)N1CCc2ccccc21
IC50 [12]: 11.9 µM (active) | IC50 [4]: 0.798 µM (active) | IC50 [5]: > 100 µM (inactive) | IC50 [6]: 45.9 µM (active)

CCOC(=O)c1ccc(N2C(=O)CC(N3CCC(O)(c4ccc(Cl)cc4)CC3)C2=O)cc1 (stereo not given)
AC50 [13]: 2.97 µM (active)

O=C(COC(=O)c1cnc(Cl)c(Cl)c1)NCCC1=CCCCC1
IC50 [1]: 7.16 µM (active) | EC50 [2]: > 53 µM (inactive) | IC50 [3]: 7.15 µM (active)

O=[N+]([O-])c1ccc([S+]([O-])Cc2ccccc2)c([N+](=O)[O-])c1 (stereo not given)
AC50 [13]: 2.17 µM (active)

COc1ccc(N2CCN(C(=O)c3ccc(Br)cc3)CC2)c([N+](=O)[O-])c1
AC50 [13]: 0.691 µM (active)

CN(CC(=O)Nc1ccc(Cl)c(C(F)(F)F)c1)C(=O)CC1Sc2ccccc2NC1=O (stereo not given)
IC50 [10]: 33.6 µM (active)

COC(=O)C(NC(=O)c1ccc(OC)cc1)(Nc1ncc(S(=O)(=O)c2ccc([N+](=O)[O-])cc2)s1)C(F)(F)F (stereo not given)
CC50 [14]: 13.4 µM (active) | CC50 [15]: > 40 µM (active) | IC50 [1]: < 0.368 µM (active) | EC50 [2]: > 53 µM (inactive) | IC50 [3]: 2.58 µM (active)

Oc1[nH]c2ccccc2c1N=Nc1ccccc1
EC50 [16]: 7.37 µM (inconclusive) | EC50 [17]: 18.3 µM (inconclusive) | EC50 [18]: > 99 µM (inactive) | EC50 [19]: 54.6 µM (inactive)
